Values after ≈ are worked out from the molar mass of the structure shown.
Columns and labels:
[1] = target: T1, human glucocorticoid receptor (GR) (Homo sapiens, UniProt P04150); assay: Binding activity on human nuclear receptor GR ([3H]-dexamethasone competition); conditions: mean ± SD, n = 4
T1 sequence (P04150 1-777): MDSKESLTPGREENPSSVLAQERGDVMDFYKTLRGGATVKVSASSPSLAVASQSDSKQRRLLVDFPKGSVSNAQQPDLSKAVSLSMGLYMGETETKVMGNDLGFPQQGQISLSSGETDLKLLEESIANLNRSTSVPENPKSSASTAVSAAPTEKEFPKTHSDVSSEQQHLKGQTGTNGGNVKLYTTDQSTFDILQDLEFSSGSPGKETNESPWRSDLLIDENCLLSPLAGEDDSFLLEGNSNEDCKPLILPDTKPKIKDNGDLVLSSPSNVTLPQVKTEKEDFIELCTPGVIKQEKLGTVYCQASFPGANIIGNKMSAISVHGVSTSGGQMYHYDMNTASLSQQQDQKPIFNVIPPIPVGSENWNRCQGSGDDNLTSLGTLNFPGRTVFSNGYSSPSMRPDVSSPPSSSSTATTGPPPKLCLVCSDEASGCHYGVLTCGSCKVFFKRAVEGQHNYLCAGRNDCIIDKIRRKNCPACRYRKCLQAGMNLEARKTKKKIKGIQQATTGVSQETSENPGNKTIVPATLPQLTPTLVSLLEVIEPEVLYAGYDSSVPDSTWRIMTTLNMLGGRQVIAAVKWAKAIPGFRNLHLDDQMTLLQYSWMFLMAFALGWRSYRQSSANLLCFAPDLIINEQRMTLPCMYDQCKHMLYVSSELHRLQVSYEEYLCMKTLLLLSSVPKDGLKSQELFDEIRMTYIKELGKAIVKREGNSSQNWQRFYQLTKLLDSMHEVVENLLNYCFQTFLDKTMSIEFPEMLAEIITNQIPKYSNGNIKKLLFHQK
Description: Buffer solution is composed of 25 mM NaPO4, 20 mM NaMoO4, 10 mM KF and 10% glycerol (pH=7.3) and stored under 4° C. Stock solution is prepared with CHAPS and DTT and stored under −20° C. […] Add 2.5 μl/hole into 96-pore plate. Take out appropriate amount of buffer solution reserve into solution to make the final concentration of CHAPS and DDT to become 0.25 mM and 2 mM respectively. Add protease inhibitors (aprotinin and leupeptin) to make its final concentration to become 1 μg/μl, and place in an ice bath. […] On the next day, add 25 μl of hydroxyapatite suspension into each pore and mix with shaking. After incubating for 10 min, separate by centrifuge for 3 min at 2500 rpm. The precipitate is washed with 100 μl of buffer solution and separated by centrifuge twice. Add 150 μl of scintillation solution (from Perkin Elmer) into each pore, mix with shaking and count by MicroBeta counter.

[2] = test system: HIV-1 AZT-resistant strain 018c P24 antigen; assay: Inhibition of HIV-1 018c P24 antigen in PBMC cell culture; assay type: cell-based; conditions: for EC50: Human immunodeficiency virus 1, PBMC, 2 h, PBMC, administration after adsorbing 2 hours; for EC50 / SI: 018c; for SI: SI=CC50/EC50
Description: Collect cells with curette, infect cells with 10^−2 AZT sensitive (018a) or AZT resistant (018c) virus strain liquid, and adsorb for 2 hours, Wash off unabsorbed virus with 1640 culture medium without serum, prepare cells infected by virus to 1×10^6/ml with culture solution, and inoculate on 96-pore culture plate, 100 μl/pore. […] Set cell control group and virus infected cell control group. Incubate under 37° C. and 5% CO2. On the fourth day (96 hours), pipette out the supernatant liquid and store under −20° C. for determination of HIV-1 P24 antigen titer and calculation of drug inhibitory action. Add MTT staining to cells for determination of cytotoxicity. Determination of cytotoxicity by MTT staining: Add 10 μl of 5 mg/ml MTT stain into each pore, continue to incubate under 37° C., 5% CO2 and saturated humidity for 4 hours. […] Determine the HIV-1 P24 antigen titer according to the operation procedure provided by the HIV-1 P24 antigen reagent kit. Compare the drug-added group with virus control group. […] Calculation method of 50% toxic concentration (CC50), 50% effective concentration (EC50) and selection index (SI):
(3) Calculation Method of Selection Index (SI) on HIV-1 P24 Antigen in Cell Culture SI=CC50/EC50

[3] = target: T2, estrogen receptor ERα (Homo sapiens, UniProt P03372); assay: Binding activity on human nuclear receptor ERα; conditions: mean ± SD, n = 4
T2 sequence (P03372 1-595): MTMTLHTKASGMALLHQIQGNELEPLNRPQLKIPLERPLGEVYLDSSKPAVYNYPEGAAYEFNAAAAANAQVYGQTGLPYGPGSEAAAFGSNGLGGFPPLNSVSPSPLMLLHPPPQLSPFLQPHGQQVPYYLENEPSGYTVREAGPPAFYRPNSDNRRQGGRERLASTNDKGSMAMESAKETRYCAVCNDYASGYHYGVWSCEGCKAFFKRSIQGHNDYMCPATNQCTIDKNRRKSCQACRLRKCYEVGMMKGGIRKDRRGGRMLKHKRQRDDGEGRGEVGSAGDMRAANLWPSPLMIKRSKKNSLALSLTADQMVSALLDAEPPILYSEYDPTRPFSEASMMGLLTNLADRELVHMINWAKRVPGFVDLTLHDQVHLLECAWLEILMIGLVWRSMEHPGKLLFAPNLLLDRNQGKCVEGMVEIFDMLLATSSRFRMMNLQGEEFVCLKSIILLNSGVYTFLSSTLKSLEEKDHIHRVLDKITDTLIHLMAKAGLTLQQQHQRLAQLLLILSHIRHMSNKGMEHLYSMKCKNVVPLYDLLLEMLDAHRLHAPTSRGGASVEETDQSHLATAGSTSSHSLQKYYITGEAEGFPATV
Description: Buffer solution is composed of 25 mM NaPO4, 20 mM NaMoO4, 10 mM KF and 10% glycerol (pH=7.3) and stored under 4° C. Stock solution is prepared with CHAPS and DTT and stored under −20° C. […] Add 2.5 μl/hole into 96-pore plate. Take out appropriate amount of buffer solution reserve into solution to make the final concentration of CHAPS and DDT to become 0.25 mM and 2 mM respectively. Add protease inhibitors (aprotinin and leupeptin) to make its final concentration to become 1 μg/μl, and place in an ice bath. After adding human nuclear receptor GR (1:8), PR (1:100), ER (1:2000), AR (1:200) and MR (1:40) into the reaction system respectively, adequately mix suitable quantity of [^3H]-dexamethasone, [^3H]-progesterone, [^3H]-estradiol and [^3H]-DHT (from Amersham), rapidly add into 96-pore plate (100 μl/pore) and incubate overnight under 4° C. On the next day, add 25 μl of hydroxyapatite suspension into each pore and mix with shaking. After incubating for 10 min, separate by centrifuge for 3 min at 2500 rpm. The precipitate is washed with 100 μl of buffer solution and separated by centrifuge twice. Add 150 μl of scintillation solution (from Perkin Elmer) into each pore, mix with shaking and count by MicroBeta counter.

[4] = Cytotoxicity in MT-4 cell culture by MTT staining method; assay type: cell-based, human; conditions: human, MT-4 cells infected with HIV-1 IIIB; MT-4 cell culture, MTT staining; read-out: Cytotoxicity TC50, MTT
Description: Set virus TCID50 determination group and cell control group. Each concentration is duplicated in two pore. Incubate under 37° C., 5% CO2 and saturated humidity in an incubator. Add MTT into each pore of cell culture plate pipetted supernatant liquid to stain, continue to incubate for 4 hours, add decolorizing liquid, determine OD value at 570 nm wavelength by enzyme-linked apparatus, and [NT]50 and TC0 as above. […] [formula]

CC#C[C@]1(O)CC[C@H]2[C@@H]3CCC4=CC(=O)CCC4=C3[C@@H](c3ccc(N(C)C4CCCCC4)cc3)C[C@@]21C [Cymipristone, 11β-[4-(N-methyl-N-cyclohexylamino)phenyl]-17α-(1-propynyl)-17β-hydroxyl-4,9-estradiene-3-one]
IC50 [1]: 0.45 ± 0.069 nM | EC50 ([2]; Average): 7.9 µg/mL (≈ 15.9 µM) | EC50 ([2]; Experiment 1): 8.42 µg/mL (≈ 16.9 µM) | EC50 ([2]; Experiment 2): 7.38 µg/mL (≈ 14.8 µM) | SI ([2]; Average): 13.18 | SI ([2]; Experiment 1): 12.21 | SI ([2]; Experiment 2): 14.15 | Cross resistance with zidovudine (AZT) (in words) ([2]; conclusion): no cross resistance | IC50 [3]: 516 ± 62.8 nM | CC50 at 96 h [4]: 60900 nM
